# Reference: patent US7875601B2, “Cancer treatment with epothilones” (Novartis AG, priority 1998, dated 2011)
# Entries after “also recorded” stand apart in the source; their conditions may differ.
# Legend:
# [1] = test system: human HCT-15 colon carcinoma; test: Antitumor effect against s.c. transplanted HCT-15 tumors; type: in vivo, female BALB/c nude mice
# Source text: Human colorectal adenocarcinoma cell line HCT-15 (ATCC CCL 225) is from the American Type Culture Collection (Rockville, Md., USA), and the cells are cultivated in vitro as recommended by the supplier. HCT-15 is an epithelial-like cell line. (Cancer Res. 39: 1020-25 [1979]) that is multi-drug resistant by virtue of over-expression of P-glycoprotein (P-gp, gp170, MDR-1;Anticancer Res. 11: 1309-12 [1991]; J. Biol. Chem. 264: 18031-40 [1989]; Int. J. Cancer 1991; 49: 696-703 [1991]) and glutathione-dependent resistance mechanisms (Int. J. Cancer 1991; 49: 688-95 [1991]).
# Female or male BALB/c nu/nu (nude) mice are kept under sterile conditions (10 to 12 mice per Type III cage) with free access to food and water. Mice weigh between 20 and 25 grams at the time of tumor implantation. Tumors are established by subcutaneous injection of cells (minimum 2×10^6 cells in 100 μl PBS or medium) in carrier mice (4-8 mice per cell line). The resulting tumors are serially passaged for a minimum of three consecutive transplantations prior to start of treatment. Tumor fragments (approx. 25 mg) are implanted s.c. into the left flank of animals with a 13-gauge trocar needle while the mice are exposed to Forene (Abbott, Switzerland) anesthesia.
# Tumor growth and body weights are monitored once or twice weekly. All treatments are administered intravenously (i.v.) and are initiated when a mean tumor volume of approximately 100 to 250 mm^3 is attained, depending upon the tumor type. Tumor volumes are determined using the formula […] (see Cancer Chemother. Pharmacol. 24:148-154, [1989]). Treatments with epothilone B vary the dose and the frequency of administration. Comparator agents are administered according to previously determined optimal treatment regimens. In addition to presenting changes in tumor volumes over the course of treatment, antitumor activity is expressed as T/C % (mean increase of tumor volumes of treated animals divided by the mean increase of tumor volumes of control animals multiplied by 100). Tumor. regression (%) represents the smallest mean tumor volume compared to the mean tumor volume at the start of treatment, according to the formula Regression (%)=(1−Vend/Vstart)×100(Vend=final mean tumor volume, Vstart=mean tumor volume at the start of treatment. Any animals in which the tumor has reached a size exceeding approximately 1.5 to 2.5 cm^3 are sacrificed. Details can be found below.
# Tumor volumes are used as the primary indicator of activity of antitumor agents used alone or in combination, and changes in body weights are measured as an indicator of treatment tolerability.
# [2] = GLP toxicology study in dogs; type: in vivo; conditions: dog
# Source text: Inclusion Criteria • The following criteria must be met for inclusion into the study: • 1. Male or female patients >18 years of age. • 2. […] At least one measurable, evaluable, or non-evaluable site of disease as defined by Southwestern Oncology Group (SWOG) Solid Tumor Response Criteria including tumor marker value that is above the institutional upper limit of normal. • 4. Women of childbearing potential must have a negative serum β-HCG pregnancy test prior to the initiation of study drug. Male and female patients of reproductive potential must agree to employ an effective method of birth control throughout the study and for up to 3 months following discontinuation of study drug. • 5. World Health Organization (WHO) Performance Status Score of ≦2. • 6. Life expectancy of at least 3 months. • 7. Written informed consent is obtained prior to any screening procedures. Exclusion Criteria • Exclusion from the study is required if any of the following apply: • 1. Female patients who are pregnant or breast-feeding. Postmenopausal women must be amenorrheic for at least 12 months to be considered of non-childbearing potential. • 2. […] This dose is calculated as one-third of the toxic dose low (TDL) in the most sensitive species studied which, for epothilone B, is the dog. […]
# [3] = 4 mg/kg, i.v. once on day 14, mean ± SEM
smiles,measurement,setting,value
C/C(=C\c1csc(C)n1)[C@@H]1C[C@@H]2O[C@]2(C)CCC[C@H](C)[C@H](O)[C@@H](C)C(=O)C(C)(C)[C@@H](O)CC(=O)O1 [epothilone B],Regression,"[1]; 4 mg/kg, i.v. once on day 14",−61%
same,Survival (No. alive/total),"[1]; 4 mg/kg, i.v. once on day 14",8/8
same,T/C,"[1]; 4 mg/kg, i.v. once on day 14",tumor regressions; also recorded: Regression
same,% Body Weight Change,[1]; [3],2 ± 2%
same,D Body Weight,[1]; [3],0.4 ± 0.3 g
same,D Tumor Volume (mm^3),[1]; [3],−97 ± 25 mm^3
same,mortalities due to treatment,[1]; single 4 mg/kg dose,No mortalities due to treatment
same,Mortalities,"[2]; 0.1 mg/kg, repeated once 3 weeks later",no mortalities
same,toxic dose low (TDL),"[2]; most sensitive species, estimated",~0.65 mg/kg
